# Measurements from US6423855B1, “Cytoprotective compounds” (Virginia Commonwealth University, priority 1996, dated 2002).
# “Also recorded” adds a separate entry of the source. Read-outs that look alike come from different tables or passages of the source.
# What was measured:
# [1] = tested on: basal production of prostaglandins; test: whole blood eicosanoid release, basal; format: cell-based, human; details: no stimulus
# Experimental: (§1) The following protocol was employed to evaluate effects of PX-18 on production of leukotrienes and prostaglandins by blood cells under basal conditions, with ionophore stimulation of cyclooxygenase type I, and with lipopolysaccharide (LPS) induction of cyclooxygenase type II. Freshly-obtained heparinized blood from medication-free donors is diluted 1:1 with RPMI, and aliquoted in 0.6 ml amounts in sterile polypropylene 12×75 […] tubes. Test drugs are added at appropriate concentrations and diluted in saline with 1% human serum albumin. Control tubes have only diluent or drug vehicle added. Drugs are added five minutes prior to addition of stimulus, at 100×concentrations, (6 μl volumes). This is replicated for 3 racks of tubes, A thru C. A has no stimulus added, and has a 30 minute and 6 hr. tube for each drug concentration. B has 20 uM of the calcium ionophore A23187 added, and is incubated at 37° C. for 30 minutes. C has 5 ug/ml of E. coli strain Bort LPS added, and is incubated at 37° C. for 6 hours. At the end each time period, the appropriate tubes are placed on ice, centrifuged, and 0.4 ml of plasma carefully decanted into a tube containing formic acid and BHT to stop all reactions and preserve eicosanoid products. These tubes are then frozen at −70° C. for up to one week, then applied to Sep-pac mini columns and extracted into methanol. […]
# [2] = target: T1, purified human disc type II, PLA2 (Homo sapiens, UniProt P14555); test: inhibition of purified human disc type II PLA2; format: biochemical
# T1 construct: the purified human disc type II, PLA2; from tissue; host or cells: human vertebral (herniated) disc
# Experimental: Both PX-13 and PX-18 inhibit the purified human disc type II, PLA2. PLA2 activity was measured as described in Franson et al., Prostaglandins, Leukotrienes and Essential Fatty Acids, 43:63-70, 1991, which is herein incorporated by reference in its entirety.
# basophils = test: histamine release from basophils (anti-human IgE, diluted blood); format: cell-based
# Experimental: The protocol to evaluate the effects of PX-18 on histamine release is described below. Freshly drawn heparinized blood from donors non-medicated for 3 days is diluted 1:5 with PBS containing 1% human serum albumin (diluent). Test drugs are diluted in diluent to 10 times final concentration, and 25 μl per well is added to duplicate wells of round-bottomed microtiter plates. Generally 3-fold dilutions of drug are examined four or five times. 200 μl of diluted blood is then added to each well. 5 minutes later, […] of rabbit anti-human IgE (purchased from Dako) is added per well, to give final concentrations of 1/400 and 1/1200 of antibody. Unstimulated (background release wells) have 25 μl of diluent added. Plates are gently tapped for mixing, then incubated for 30 minutes. After incubation, plates are cooled on ice, spun down in a refrigerated centrifuge, and replaced on ice. 100 μl plasma is removed from each well for assay, and placed in a 1.5 ml Eppendorf tube containing acetylation reagent. Following acetylation, the histamine adduct is quantitated by a sensitive and specific commercial competitive assay, utilizing the competition of enzyme conjugated acetyl-histamine with sample analyte for binding to a specific antibody on the solid phase. A sample of blood is also lysed by repeated freeze/thaw to determine total blood histamine. Results are expressed as a percentage of total blood histamine release. In an acceptable assay maximal release is greater than 45% and background release is less than 15%. Experiments are performed in duplicate or triplicate using separate blood donors.
# cyclooxygenase II = test: whole blood eicosanoid release, LPS induction; format: cell-based, human; details: 5 ug/ml E. coli LPS, 6 hours, 37° C.
# Experimental: as §1
# cyclooxygenase I = test: whole blood eicosanoid release, ionophore stimulation; format: cell-based, human; details: 20 uM A23187, 30 minutes
# Experimental: as §1
# pancreatin = test: degradation in vitro by pancreatin; format: in vitro ADME; details: commercial pancreatic enzyme preparation (Sigma)
# Description: The compounds of the present invention are not generally hydrolyzed by pancreatic enzymes and are different from glycerol-based compounds in terms of their chemistry and metabolism. […] The resistance of PX-13 and PX-18 to metabolism by pancreatic enzymes supports their stability after oral administration.
# [3] = tested on: lipoxygenase and cyclooxygenase; test: lipoxygenase and cyclooxygenase metabolites with exogenous arachidonic acid; format: cell-based; details: exogenous arachidonic acid added
# Description: The comparison is to MK 592, a selective lipoxygenase inhibitor.
# [4] = tested on: lipoxygenase products such as LTC4; test: whole blood production of lipoxygenase products; format: cell-based, human; details: comparison to MK 592
# Experimental: as §1
# [5] = tested on: drug-resistant P. falciparum strains; test: growth of the same drug-resistant P. falciparum strains (PX-18); format: cell-based, Plasmodium falciparum; details: for IC50: two strains as described above, which value for which strain not stated
# [6] = peroxidation (malondialdehyde formation) of homogenized rat bowel
# Experimental: These drugs were also tested for their ability to enhance the preservation of tissues stored for subsequent transplantation. The small bowel was removed from rats, washed free of luminal contents and the tissue stored in University of Wisconsin (UW) preservative media ±40 uM PX-13 or mepacrine for 48 hrs. The graft was then transplanted into rats with or without intravenous (IV) infusion of 20 mg/kg PX-13 or mepacrine at the time of transplantation. Upon transplantation, the bowel is immediately injured as evidenced by tissue darkening within two minutes. […] Both PX-13 and mepacrine inhibit the peroxidation (malondialdehyde formation) of homogenized rat bowel, an indication that the membrane-stabilizing, PLA2-inhibitors, also have anti-oxidant activity.
# [7] = tested on: larval forms of an animal filarid; test: molting of larval forms of a filarid
# Description: Infections caused by parasites constitute a major public health problem throughout the world for humans and animals, annually resulting in significant incidence of disease, suffering and death. Parasites such as those that cause malaria and other protozoal parasites of animals and humans are especially troublesome.
# small bowel graft = test: small bowel transplantation ischemia-reperfusion injury; format: in vivo, rat
# Experimental: These drugs were also tested for their ability to enhance the preservation of tissues stored for subsequent transplantation. The small bowel was removed from rats, washed free of luminal contents and the tissue stored in University of Wisconsin (UW) preservative media ±40 uM PX-13 or mepacrine for 48 hrs. The graft was then transplanted into rats with or without intravenous (IV) infusion of 20 mg/kg PX-13 or mepacrine at the time of transplantation.
# [8] = tested on: PLA2 activity in extracts of rat bowel; test: PLA2 activity in extracts of rat bowel; format: biochemical
# human blood cells = test: preservation of whole blood (LDH and hemoglobin release); format: cell-based; details: 20 uM
# Experimental: The effect of PX-13 and mepacrine on whole blood cell viability were tested as a function of time of storage.
# Heparinized human blood was centrifuged at 400×g and the resulting plasma was removed and replaced with an equal volume of Dulbecco's medium. The resuspended cells were then incubated at 37° C. for 0-72 hrs. in a shaking water bath. At the indicated times, a 0.8 ml aliquot was removed and centrifuged at 400×g to sediment cells. Appearance of lactate dehydrogenase (LDH) and hemoglobin in the supernate was indicative of cell injury. PX-13 and mepacrine stabilized cells and decreased the injury as evidenced by diminished levels of LDH and hemoglobin in the supernate. This is expressed as percent protection.
# [9] = small bowel storage in perfusate solution, tissue weight; design: species or system rat; details: 24 and 48 hours in the perfusate solution
# Experimental: These drugs were also tested for their ability to enhance the preservation of tissues stored for subsequent transplantation. […] The graft was then transplanted into rats with or without intravenous (IV) infusion of 20 mg/kg PX-13 or mepacrine at the time of transplantation.
# T1 sequence (P14555 21-144): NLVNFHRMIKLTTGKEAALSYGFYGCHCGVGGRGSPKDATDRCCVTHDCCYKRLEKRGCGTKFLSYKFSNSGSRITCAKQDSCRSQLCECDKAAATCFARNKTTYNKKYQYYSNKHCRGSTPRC
compound,measurement,setting,value
"CCCCCCCC/C=C\CCCCCCCC(=O)OCCN(CCOC(=O)CCCCCCC/C=C\CCCCCCCC)CCS(=O)(=O)O [PX-18, 2-[N,N-Bis(2-oleoyloxyethyl)amino]-1-ethanesulfonic acid]",inhibition of basal production of prostaglandins,[1],even less or no inhibition
same,IC50,[2],0.3 µM
same,efficacy relative to cromolyn,basophils,more efficacious than cromolyn
same,potency relative to epinephrine,basophils,equipotent to epinephrine
same,degranulation of basophils,basophils; stimulus antibody to surface-bound IgE,inhibits
same,inhibition of cytokine-inducible cyclooxygenase II,cyclooxygenase II,strongly inhibit
same,inhibition of constitutive cyclooxygenase I,cyclooxygenase I,less inhibition
same,degradation in vitro by pancreatin,pancreatin,resistant to degradation
same,production of lipoxygenase and cyclooxygenase metabolites,[3],does not inhibit
same,production of lipoxygenase products such as LTC4,[4],inhibited
same,effectiveness relative to PX-13,[5],10 times
same,IC50,"[5]; Plasmodium falciparum, read-out: IC50",1.3 µg/mL
same,IC50,[5],2.4 µg/mL
"CCN(CC)CCCC(C)Nc1c2ccc(Cl)cc2nc2ccc(OC)cc12 (centres unmarked) [mepacrine, reference compound]",peroxidation (malondialdehyde formation),[6],inhibit
same,molting of larval forms,[7],significantly reduced
same,gross and microscopic injury to tissue,"small bowel graft; 40 uM in UW media 48 hrs, with or without 20 mg/kg IV at transplantation",dramatically reduced
same,protection against ischemia and reperfusion injury,small bowel graft; small bowel transplantation,protect; also recorded: some protection although not as great as with PX-13
same,inhibition of PLA2 activity,[8],inhibited
same,Percent Protection Hemoglobin,human blood cells; 48 hr,61%
same,Percent Protection LDH,"human blood cells; 48 hr, 37° C.",58%
same,Percent Protection Hemoglobin,human blood cells; 72 hr,45%
same,Percent Protection LDH,human blood cells; 72 hr,27%
same,weight of the tissues after storage,[9],reduced weight
